Data published in publication PMC7587962, “Evaluation of Cytotoxicity and α-Glucosidase Inhibitory Activity of Amide and Polyamino-Derivatives of Lupane Triterpenoids” (Molecules, 2020).

Legend:
SK-MEL-5 = assay: NCI-60 SRB screen: melanoma SK-MEL-5; format: cell-based, human; settings: SK-MEL-5
OVCAR-5 = assay: NCI-60 SRB screen: ovarian cancer OVCAR-5; format: cell-based, human; settings: OVCAR-5
UACC-62 = assay: NCI-60 SRB screen: melanoma UACC-62; format: cell-based, human; settings: UACC-62
Breast cancer subpanel = assay: NCI-60 screen, subpanel Breast cancer
OVCAR-3 = assay: NCI-60 SRB screen: ovarian cancer OVCAR-3; format: cell-based, human; settings: OVCAR-3
SN12C = assay: NCI-60 SRB screen: renal cancer SN12C; format: cell-based, human
UACC-257 = assay: NCI-60 SRB screen: melanoma UACC-257; format: cell-based, human; settings: UACC-257
MCF7 = assay: NCI-60 SRB screen: breast cancer MCF7; format: cell-based; settings: Homo sapiens, 48 h, MCF7
CNS cancer subpanel = assay: NCI-60 screen, subpanel CNS cancer
A498 = assay: NCI-60 SRB screen: renal cancer A498; format: cell-based, human; settings: A498
NCI/ADR-RES = assay: NCI-60 SRB screen: ovarian cancer NCI/ADR-RES; format: cell-based, human
SR = assay: NCI-60 SRB screen: leukemia SR; format: cell-based; settings: Homo sapiens, 48 h
IGROV1 = assay: NCI-60 SRB screen: ovarian cancer IGROV1; format: cell-based, human; settings: IGROV1
OVCAR-8 = assay: NCI-60 SRB screen: ovarian cancer OVCAR-8; format: cell-based, human; settings: OVCAR-8
Prostate cancer subpanel = assay: NCI-60 screen, subpanel Prostate cancer
[1] = tested on: 60 human tumor cell lines; settings: single dose 10 µM
CCRF-CEM = assay: NCI-60 SRB screen: leukemia CCRF-CEM; format: cell-based; settings: Homo sapiens, 48 h
DU-145 = assay: NCI-60 SRB screen: prostate cancer DU-145; format: cell-based, human; settings: DU-145
LOX IMVI = assay: NCI-60 SRB screen: melanoma LOX IMVI; format: cell-based, human
Colon Cancer subpanel = assay: NCI-60 screen, subpanel Colon Cancer
HL-60(TB) = assay: NCI-60 SRB screen: leukemia HL-60(TB); format: cell-based; settings: Homo sapiens, 48 h, HL-60(TB)
U251 = assay: NCI-60 SRB screen: CNS cancer U251; format: cell-based; settings: Homo sapiens, U251
ACHN = assay: NCI-60 SRB screen: renal cancer ACHN; format: cell-based, human
MOLT-4 = assay: NCI-60 SRB screen: leukemia MOLT-4; format: cell-based; settings: Homo sapiens, 48 h, MOLT-4
TK-10 = assay: NCI-60 SRB screen: renal cancer TK-10; format: cell-based, human; settings: TK-10
MDA-MB-231/ATCC = assay: NCI-60 SRB screen: breast cancer MDA-MB-231/ATCC; format: cell-based; settings: Homo sapiens, 48 h
NCI-H460 = assay: NCI-60 SRB screen: non-small cell lung cancer NCI-H460; format: cell-based; settings: Homo sapiens, 48 h, NCI-H460
RXF 393 = assay: NCI-60 SRB screen: renal cancer RXF 393; format: cell-based, human; settings: RXF 393
SNB-75 = assay: NCI-60 SRB screen: CNS cancer SNB-75; format: cell-based, human; settings: SNB-75
HCT-116 = assay: NCI-60 SRB screen: colon cancer HCT-116; format: cell-based; settings: Homo sapiens, 48 h, HCT-116
RPMI-8226 = assay: NCI-60 SRB screen: leukemia RPMI-8226; format: cell-based; settings: Homo sapiens, 48 h, RPMI-8226
MDA-MB-435 = assay: NCI-60 SRB screen: melanoma MDA-MB-435; format: cell-based, human; settings: MDA-MB-435
HOP-92 = assay: NCI-60 SRB screen: non-small cell lung cancer HOP-92; format: cell-based, human; settings: HOP-92
M14 = assay: NCI-60 SRB screen: melanoma M14; format: cell-based, human; settings: M14
COLO 205 = assay: NCI-60 SRB screen: colon cancer COLO 205; format: cell-based, human; settings: COLO 205
HS 578T = assay: NCI-60 SRB screen: breast cancer HS 578T; format: cell-based, human; settings: HS 578T
SF-295 = assay: NCI-60 SRB screen: CNS cancer SF-295; format: cell-based, human; settings: SF-295
[2] = Homo sapiens, five concentrations, 48 h, SRB, read-out: GI50
[3] = single dose 10 µM, read-out: Percentage Cell Growth
[4] = five concentrations, SRB, read-out: GI50

C=C(C)[C@@H]1CC[C@]2(C(=O)NCCNCCNCCN)CC[C@]3(C)[C@H](CC[C@@H]4[C@@]5(C)CC[C@H](O)C(C)(C)[C@@H]5CC[C@]43C)[C@@H]12 [Compound 6]
GI50 (SK-MEL-5; [2]): 11.1 µM | Percentage Cell Growth (SK-MEL-5; single dose 10 µM): −90.10% | GI50 (OVCAR-5; [2]): 18.6 µM | Percentage Cell Growth (OVCAR-5; single dose 10 µM): −83.37% | GI50 (UACC-62; [2]): 9.29 µM | Percentage Cell Growth (UACC-62; single dose 10 µM): −100.00% | MID b, average sensitivity of all cell line of particular subpanel (Breast cancer subpanel): 13.86 µM | Selectivity, ratio MID a: MID b (Breast cancer subpanel): 0.88 | GI50 (OVCAR-3; [2]): 12.2 µM | Percentage Cell Growth (OVCAR-3; single dose 10 µM): −66.02% | GI50 (SN12C; [2]): 13.5 µM | Percentage Cell Growth (SN12C; single dose 10 µM): −53.68% | GI50 (UACC-257; [2]): 15.1 µM | Percentage Cell Growth (UACC-257; single dose 10 µM): −39.58% | activity at 10 µM (MCF7; [3]): -60.5% | GI50 (MCF7; [4]): 13.2 µM | MID b, average sensitivity of all cell line of particular subpanel (CNS cancer subpanel): 12.52 µM | Selectivity, ratio MID a: MID b (CNS cancer subpanel): 0.97 | Percentage Cell Growth (A498; single dose 10 µM): −32.64% | GI50 (A498; [2]): 19.6 µM | GI50 (NCI/ADR-RES; [2]): 18.9 µM | Percentage Cell Growth (NCI/ADR-RES; single dose 10 µM): −13.05% | activity at 10 µM (SR; [3]): -4.72% | GI50 (SR; [4]): 6.76 µM | GI50 (IGROV1; Homo sapiens, IGROV-1, five concentrations, 48 h, SRB, read-out: GI50): 16.1 µM | Percentage Cell Growth (IGROV1; single dose 10 µM): −81.43% | GI50 (OVCAR-8; [2]): 18.8 µM | Percentage Cell Growth (OVCAR-8; single dose 10 µM): −12.90% | MID b, average sensitivity of all cell line of particular subpanel (Prostate cancer subpanel): 8.53 µM | Selectivity, ratio MID a: MID b (Prostate cancer subpanel): 1.42 | cancer cell lethality, range of percentage growth ([1]; cell lines with negative growth): −4.72% to −100% | cases of cancer cell lethality ([1]; number of cell lines): 57 | activity at 10 µM (CCRF-CEM; [3]): 5.18% | GI50 (CCRF-CEM; [4]): 4.55 µM | Percentage Cell Growth (DU-145; single dose 10 µM): −8.34% | GI50 (DU-145; [2]): 14.1 µM | GI50 (LOX IMVI; [2]): 14.9 µM | Percentage Cell Growth (LOX IMVI; single dose 10 µM): −41.03% | MID b, average sensitivity of all cell line of particular subpanel (Colon Cancer subpanel): 11.72 µM | Selectivity, ratio MID a: MID b (Colon Cancer subpanel): 1.04 | activity at 10 µM (HL-60(TB); [3]): -24% | GI50 (HL-60(TB); [4]): 7.33 µM | activity at 10 µM (U251; U-251, 48 h, single dose 10 µM, read-out: Percentage Cell Growth): -71.7% | GI50 (U251; U-251, five concentrations, 48 h, SRB, read-out: GI50): 12.7 µM | GI50 (ACHN; [2]): 12 µM | Percentage Cell Growth (ACHN; single dose 10 µM): −100.00% | activity at 10 µM (MOLT-4; [3]): 1.18% | GI50 (MOLT-4; [4]): 11.5 µM | GI50 (TK-10; [2]): 15.8 µM | Percentage Cell Growth (TK-10; single dose 10 µM): −67.30% | activity at 10 µM (MDA-MB-231/ATCC; MDA-MB-231/ATCC, single dose 10 µM, read-out: Percentage Cell Growth): -56.9% | GI50 (MDA-MB-231/ATCC; MDA-MB-231, MDA-MB-31/ATCC, five concentrations, SRB, read-out: GI50): 15.1 µM | activity at 10 µM (NCI-H460; [3]): -100% | GI50 (NCI-H460; [4]): 14.7 µM | GI50 (RXF 393; [2]): 13.2 µM | Percentage Cell Growth (RXF 393; single dose 10 µM): −82.88% | GI50 (SNB-75; [2]): 11.1 µM | Percentage Cell Growth (SNB-75; single dose 10 µM): −79.32% | activity at 10 µM (HCT-116; [3]): -26.5% | GI50 (HCT-116; [4]): 4.4 µM | activity at 10 µM (RPMI-8226; [3]): -8.15% | GI50 (RPMI-8226; [4]): 2.81 µM | GI50 (MDA-MB-435; [2]): 13.4 µM | Percentage Cell Growth (MDA-MB-435; single dose 10 µM): −89.21% | Percentage Cell Growth (HOP-92; single dose 10 µM): −65.35% | GI50 (HOP-92; [2]): 4.61 µM | GI50 (M14; [2]): 11 µM | Percentage Cell Growth (M14; single dose 10 µM): −30.98% | Percentage Cell Growth (COLO 205; single dose 10 µM): −19.47% | GI50 (COLO 205; [2]): 15.9 µM | Percentage Cell Growth (HS 578T; single dose 10 µM): −23.26% | GI50 (HS 578T; [2]): 20.1 µM | GI50 (SF-295; [2]): 13.8 µM | Percentage Cell Growth (SF-295; single dose 10 µM): −84.72%
